# Data reported in US20090011405A1 (priority 2003, published 2009).
# B1: FOSZ: amino acids 111-195, inclusive, of the FOS protein, a known blocker of c-Jun self dimerization (protein)
# chain: VVKTMTGGRAQSIGRRGKVEQLSPEEEEKRRIRRERNKMAAAKCRNRRRELTDTLQAETDQLEDEKSALQTEIANLLKEKEKLEF
# Assays:
# [1] = test system: JUN1 and JUNZ (c-Jun self dimerization); experiment: Reverse two-hybrid assay with JUN1 and JUNZ, background and plating efficiency; type: cell-based, yeast
# Procedure: A reverse two-hybrid assay was performed using the interacting proteins JUN1 (amino acids 187-334, inclusive, of the JUN protein) and JUNZ (amino acids 259-309, inclusive, of the JUN protein) both of which comprise the leucine zipper domain of c-Jun (ie the region necessary for self dimerization). As a positive control FOSZ (amino acids 111-195, inclusive, of the FOS protein), a known blocker of c-Jun self dimerization was used. As a negative control, the expression vector alone was used. Gene constructs were transformed into cells comprising the negative selectable markers URA3 and CYH2.
# Cells comprising only the interacting partners or the interacting partners and FOSZ (19F) or the interacting partners and the negative control (19) were grown in various concentrations of uracil (from 10 mg/L to 0 mg/L). All cells were also plated in the presence of 0.02% galactose; 0.04% FOA; and 5 μg/ml cycloheximide.
# Background was determined by estimating the number of cells (colonies) that expressed only JUN1 and JUNZ and were still capable of growing in the presence of 5-FOA. Plating efficiency was determined by estimating the number of cells out of the 500 plated that expressed JUN1, JUNZ and FOSZ that were capable of growing in each set of conditions.
# Using the same expression constructs and cells as in Example 2 cells were plated in the presence of increasing concentrations of 5-FOA and uracil. […]
# [2] = target: JUN1 (amino acids 187-334, inclusive, of the JUN protein); experiment: cell-based or functional assay
# [3] = target: JUNZ (amino acids 259-309, inclusive, of the JUN protein); experiment: cell-based or functional assay
molecule,measurement,setting,value
C[C@@H]1C[C@@H]([C@H](O)CC2CC(=O)NC(=O)C2)C(=O)[C@@H](C)C1 [cycloheximide],background (effect of increasing cycloheximide concentration),"[1]; JUN1/JUNZ cells, 0.2 or 0.5 mg/L uracil, 0.06% 5-FOA, 10000 or 100000 cells plated",lower levels of background
O=c1cc[nH]c(=O)[nH]1 [uracil],background (effect of increased uracil concentration),"[1]; JUN1/JUNZ cells, uracil 10 to 0 mg/L, 0.02% galactose, 0.04% FOA, 5 μg/ml cycloheximide",increased background
same,plating efficiency (effect of increased uracil concentration),"[1]; JUN1/JUNZ/FOSZ cells, uracil 10 to 0 mg/L, 0.02% galactose, 0.04% FOA, 5 μg/ml cycloheximide",reduced plating efficiency
same,background,"[1]; cells expressing only JUN1 and JUNZ, 0.25 and 0.5 mg/L uracil, 0.02% galactose, 0.04% FOA, 5 μg/ml cycloheximide",0%
"FOSZ (amino acids 111-195, inclusive, of the FOS protein) (from UniProt P01100 111-195)","plating efficiency (cells expressing JUN1, JUNZ and FOSZ that grow under counter-selection)",[2],> 40%
same,"plating efficiency (cells expressing JUN1, JUNZ and FOSZ that grow under counter-selection)",[3],> 40%
"JUN1 (amino acids 187-334, inclusive, of the JUN protein)",background (colonies expressing only JUN1 and JUNZ that still grow in the presence of 5-FOA),[3],0%
B1,plating efficiency,"[1]; cells expressing JUN1, JUNZ and FOSZ (19F), 500 plated, low concentrations of uracil, 0.02% galactose, 0.04% FOA, 5 μg/ml cycloheximide",greater than 40%
